From PubChem BioAssay AID256 (DTP/NCI, 2004)
Where “and” joins values, the source holds several entries; their conditions need not be identical. Identical values can stand only once. Inconclusive results and toxic doses are left out. Rule for the calls: active = survival T/C of 150% or more; inactive = T/C below 125% in these data. Starred links: 1 amine or outer side, 2 acyl side, 3 side chain; linkers in the order of their positions; H or OH if unused. Positions of bridges follow the written chain, without caps; N, C: chain ends. Non-standard residues stand in square brackets, D forms with d. Residues, ends and D or L forms follow the SMILES beside them. Chains are numbered I, II in the order given. Actinocin(1to9) = Cc1c2oc3c(C)ccc(C(=O)[*:2])c3nc-2c(C(=O)[*:1])c(N)c1=O; NMeV = CN[CH](C(=O)O)C(C)C; Sar = CNCC(=O)O

System: CD2F1 mice, L1210 leukemia ip, survival T/C
Assay: NCI In Vivo Anticancer Drug Screen. Data for tumor model L1210 Leukemia (intraperitoneal) in CD2F1 (CDF1) mice
Conditions: higher = longer survival
Summary of the method: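 Antitumor effect is scored in animals hosting a serially transplanted tumor. Values compare compound-dosed animals against vehicle-only controls as a simple quotient.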

[1] = endpoint: mean survival time, dose: 25.0 mg/kg/injection, schedule: Q01DX009 (ip), vehicle: saline
[2] = endpoint: mean survival time, dose: 100.0 mg/kg/injection, schedule: Q01DX009 (ip), vehicle: saline
[3] = endpoint: mean survival time, dose: 200.0 mg/kg/injection, schedule: Q01DX009 (ip), vehicle: saline
[4] = endpoint: mean survival time, dose: 400.0 mg/kg/injection, schedule: Q01DX009 (ip), vehicle: saline
[5] = endpoint: mean survival time, dose: 100.0 mg/kg/injection, schedule: Q01DX009 (ip), vehicle: saline with Tween-80
[6] = endpoint: mean survival time, dose: 200.0 mg/kg/injection, schedule: Q01DX009 (ip), vehicle: saline with Tween-80
[7] = endpoint: mean survival time, dose: 12.5 mg/kg/injection, schedule: Q01DX009 (ip), vehicle: saline
[8] = endpoint: mean survival time, dose: 25.0 mg/kg/injection, schedule: Q01DX009 (ip), vehicle: saline with Tween-80
[9] = endpoint: mean survival time, dose: 50.0 mg/kg/injection, schedule: Q01DX009 (ip), vehicle: saline with Tween-80
[10] = endpoint: mean survival time, dose: 100.0 mg/kg/injection, schedule: Q04DX003 (ip), vehicle: saline with Tween-80
[11] = endpoint: mean survival time, dose: 200.0 mg/kg/injection, schedule: Q04DX003 (ip), vehicle: saline with Tween-80
[12] = endpoint: mean survival time, dose: 400.0 mg/kg/injection, schedule: Q01DX009 (ip), vehicle: saline with Tween-80
[13] = endpoint: mean survival time, dose: 400.0 mg/kg/injection, schedule: Q04DX003 (ip), vehicle: saline with Tween-80
[14] = endpoint: mean survival time, dose: 25.0 mg/kg/injection, schedule: Q04DX003 (ip), vehicle: saline with Tween-80
[15] = endpoint: mean survival time, dose: 25.0 mg/kg/injection, schedule: Q04DX002 (ip), vehicle: saline with Tween-80

Measured: T/C

CCCCCCCCCCCCCCCC[N+]1(C)CCSCC1
inactive: endpoint: mean survival time, dose: 0.78 mg/kg/injection, schedule: Q01DX009 (ip), vehicle: saline 93 % of control and 103 % of control | endpoint: mean survival time, dose: 1.56 mg/kg/injection, schedule: Q04DX003 (ip), vehicle: saline 106 % of control | endpoint: mean survival time, dose: 3.13 mg/kg/injection, schedule: Q01DX001 (ip), vehicle: saline 104 % of control | endpoint: mean survival time, dose: 3.13 mg/kg/injection, schedule: Q04DX003 (ip), vehicle: saline 110 % of control | endpoint: mean survival time, dose: 6.25 mg/kg/injection, schedule: Q01DX001 (ip), vehicle: saline 104 % of control | endpoint: mean survival time, dose: 6.25 mg/kg/injection, schedule: Q04DX003 (ip), vehicle: saline 104 % of control | endpoint: mean survival time, dose: 12.5 mg/kg/injection, schedule: Q01DX001 (ip), vehicle: saline with Tween-80 97 % of control | endpoint: mean survival time, dose: 12.5 mg/kg/injection, schedule: Q01DX001 (ip), vehicle: saline 104 % of control | endpoint: mean survival time, dose: 12.5 mg/kg/injection, schedule: Q04DX003 (ip), vehicle: saline 102 % of control | endpoint: mean survival time, dose: 25.0 mg/kg/injection, schedule: Q01DX001 (ip), vehicle: saline with Tween-80 95 % of control | endpoint: mean survival time, dose: 25.0 mg/kg/injection, schedule: Q01DX001 (ip), vehicle: saline 104 % of control | [1] 87 % of control | endpoint: mean survival time, dose: 25.0 mg/kg/injection, schedule: Q04DX002 (ip), vehicle: saline 88 % of control | endpoint: mean survival time, dose: 50.0 mg/kg/injection, schedule: Q01DX001 (ip), vehicle: saline with Tween-80 100 % of control

CCC(C)C1NC(=O)C(NC(=O)c2c3nc4c(C(=O)NC5C(=O)NC(C(C)CC)C(=O)N6CCCC6C(=O)N(C)CC(=O)N(C)C(C(C)C)C(=O)OC5C)ccc(C)c4oc-3c(C)c(=O)c2N)C(C)OC(=O)C(C(C)C)N(C)C(=O)CN(C)C(=O)C2CCCN2C1=O (configuration not stated) (I: TIP[Sar][NMeV] / II: TIP[Sar][NMeV]; ester I:1-I:C, II:1-II:C; linker I:N-II:N via Actinocin(1to9); configuration not given here)
inactive: endpoint: mean survival time, dose: 0.25 mg/kg/injection, schedule: Q01DX001 (ip), vehicle: saline 112 % of control | endpoint: mean survival time, dose: 0.5 mg/kg/injection, schedule: Q01DX001 (ip), vehicle: saline 120 % of control

c1ccc2c(c1)Sc1cnccc1N2CC1CO1 (configuration not stated)
inactive: [2] 102 % of control | [3] 102 % of control | [4] 104 % of control

BrCC12CCC1(CBr)COC2 (configuration not stated)
inactive: endpoint: mean survival time, dose: 100.0 mg/kg/injection, schedule: Q04DX003 (ip), vehicle: other 102 % of control | endpoint: mean survival time, dose: 200.0 mg/kg/injection, schedule: Q04DX003 (ip), vehicle: other 107 % of control | endpoint: mean survival time, dose: 400.0 mg/kg/injection, schedule: Q04DX003 (ip), vehicle: other 96 % of control

CCOC1(C)OC2OC(COC(c3ccccc3)(c3ccccc3)c3ccccc3)C(O)C(O)C2O1 (configuration not stated)
inactive: endpoint: mean survival time, dose: 12.5 mg/kg/injection, schedule: Q01DX009 (ip), vehicle: other 97 % of control | endpoint: mean survival time, dose: 25.0 mg/kg/injection, schedule: Q01DX009 (ip), vehicle: other 103 % of control | endpoint: mean survival time, dose: 50.0 mg/kg/injection, schedule: Q01DX009 (ip), vehicle: other 101 % of control | endpoint: mean survival time, dose: 100.0 mg/kg/injection, schedule: Q01DX009 (ip), vehicle: other 98 % of control | endpoint: mean survival time, dose: 200.0 mg/kg/injection, schedule: Q01DX009 (ip), vehicle: other 101 % of control

COc1cc([N+](=O)[O-])ccc1NC(=O)OC/C=C/c1ccccc1
inactive: [5] 92 % of control | [6] 91 % of control

CCOC(=O)C(C#N)C1CNP(=O)(N(CCCl)CCCl)OC1 (configuration not stated)
inactive: endpoint: mean survival time, dose: 31.25 mg/kg/injection, schedule: Q01DX001 (ip), vehicle: DMSO 98 % of control | endpoint: mean survival time, dose: 62.5 mg/kg/injection, schedule: Q01DX001 (ip), vehicle: DMSO 98 % of control | endpoint: mean survival time, dose: 125.0 mg/kg/injection, schedule: Q01DX001 (ip), vehicle: DMSO 100 % of control | endpoint: mean survival time, dose: 250.0 mg/kg/injection, schedule: Q01DX001 (ip), vehicle: DMSO 100 % of control | endpoint: mean survival time, dose: 500.0 mg/kg/injection, schedule: Q01DX001 (ip), vehicle: DMSO 112 % of control | endpoint: mean survival time, dose: 1000.0 mg/kg/injection, schedule: Q01DX001 (ip), vehicle: DMSO 115 % of control

COc1ccc2c(c1)N(CC(C)C[N+](C)(C)CCCCCCCCCC[N+](C)(C)CC(C)CN1c3ccccc3Sc3ccc(OC)cc31)c1ccccc1S2 (configuration not stated)
inactive: endpoint: mean survival time, dose: 6.25 mg/kg/injection, schedule: Q01DX009 (ip), vehicle: saline 100 % of control | [7] 92 % of control | [1] 106 % of control

CCCC(C(=O)OCC)C1=NC(C)(C)CC(C)O1 (configuration not stated)
inactive: endpoint: mean survival time, dose: 100.0 mg/kg/injection, schedule: Q04DX003 (ip), vehicle: acetone 100 % of control | endpoint: mean survival time, dose: 200.0 mg/kg/injection, schedule: Q04DX003 (ip), vehicle: acetone 102 % of control | endpoint: mean survival time, dose: 400.0 mg/kg/injection, schedule: Q04DX003 (ip), vehicle: acetone 94 % of control

C#CCOC(=O)Nc1cccc2ccccc12
inactive: endpoint: mean survival time, dose: 100.0 mg/kg/injection, schedule: Q04DX003 (ip), vehicle: Klucel (hydroxypropylcellulose) (HPC) 100 % of control | endpoint: mean survival time, dose: 200.0 mg/kg/injection, schedule: Q04DX003 (ip), vehicle: Klucel (hydroxypropylcellulose) (HPC) 96 % of control | endpoint: mean survival time, dose: 400.0 mg/kg/injection, schedule: Q04DX003 (ip), vehicle: Klucel (hydroxypropylcellulose) (HPC) 94 % of control

CCOC(=O)CCC(C)(C#N)c1ccccc1 (configuration not stated)
inactive: [8] 96 % of control | [9] 93 % of control | [5] 98 % of control

O=C(Oc1ccccc1Cl)c1ccccc1
inactive: [5] 100 % of control | [10] 105 % of control | [6] 98 % of control | [11] 100 % of control | [12] 108 % of control | [13] 111 % of control

FC(F)(F)c1nc2nc(Cl)c(Cl)nc2[nH]1
inactive: endpoint: mean survival time, dose: 10.0 mg/kg/injection, schedule: Q01DX009 (ip), vehicle: saline with Tween-80 97 % of control | [7] 102 % of control | endpoint: mean survival time, dose: 20.0 mg/kg/injection, schedule: Q01DX009 (ip), vehicle: saline with Tween-80 106 % of control | [1] 101 % of control | [2] 107 % of control | endpoint: median survival time, dose: 30.0 mg/kg/injection, schedule: Q04DX003 (ip), vehicle: saline with Tween-80 106 % of control | endpoint: median survival time, dose: 44.0 mg/kg/injection, schedule: Q04DX003 (ip), vehicle: saline with Tween-80 106 % of control | endpoint: median survival time, dose: 66.0 mg/kg/injection, schedule: Q04DX003 (ip), vehicle: saline with Tween-80 110 % of control

c1ccc(OCCC[P+](c2ccccc2)(c2ccccc2)c2ccccc2)cc1
inactive: endpoint: mean survival time, dose: 10.0 mg/kg/injection, schedule: Q01DX009 (ip), vehicle: saline 105 % of control | endpoint: mean survival time, dose: 20.0 mg/kg/injection, schedule: Q01DX009 (ip), vehicle: saline 95 % of control | [8] 95 % of control | [14] 101 % of control | [9] 113 % of control | endpoint: mean survival time, dose: 50.0 mg/kg/injection, schedule: Q04DX003 (ip), vehicle: saline with Tween-80 92 % of control | [5] 111 % of control | [10] 92 % of control

c1ccc(C[As+](c2ccccc2)(c2ccccc2)c2ccccc2)cc1
inactive: [15] 96 % of control

Cc1ccc(S(=O)(=O)OCC2OCOC(C(O)CI)C2O)cc1 (configuration not stated)
inactive: endpoint: mean survival time, dose: 100.0 mg/kg/injection, schedule: Q01DX001 (ip), vehicle: saline with Tween-80 92 % of control | endpoint: mean survival time, dose: 200.0 mg/kg/injection, schedule: Q01DX001 (ip), vehicle: saline with Tween-80 92 % of control | endpoint: mean survival time, dose: 400.0 mg/kg/injection, schedule: Q01DX001 (ip), vehicle: saline with Tween-80 102 % of control

OCC1OC(n2cnc3c2nnn2ccnc32)C(O)C1O (configuration not stated)
inactive: [2] 112 % of control | [3] 106 % of control | [4] 115 % of control

Nc1ccccc1Sc1ccncc1[N+](=O)[O-]
inactive: [5] 96 % of control | [10] 90 % of control | [6] 100 % of control | [11] 95 % of control | [12] 101 % of control | [13] 97 % of control

CN(C)CCC(=O)/C=C\c1ccccc1
inactive: endpoint: mean survival time, dose: 100.0 mg/kg/injection, schedule: Q04DX003 (ip), vehicle: saline 89 % of control

CP1(=S)CCC(O)(c2ccccc2)CC1 (configuration not stated)
inactive: [8] 101 % of control | [15] 91 % of control | [9] 89 % of control | endpoint: mean survival time, dose: 50.0 mg/kg/injection, schedule: Q04DX002 (ip), vehicle: saline with Tween-80 91 % of control | [5] 97 % of control | endpoint: mean survival time, dose: 100.0 mg/kg/injection, schedule: Q04DX002 (ip), vehicle: saline with Tween-80 95 % of control

CCN(CC)C(=O)c1ccccc1
inactive: [2] 98 % of control | [3] 98 % of control

CCC(C)[Se][Se]C(C)CC (configuration not stated)
inactive: [14] 93 % of control
